Experiment [1] concerns the target Adenosine receptor A2a (Rattus norvegicus) (UniProt P30543). As to the kind of experiment: Displacement of [3H]ZM-241385 from adenosine A2A receptor expressed in PC12 cell membrane.
Experiment [2] relates to Adenosine receptor A1 (Mesocricetus auratus). As to the kind of experiment: Intrinsic activity at adenosine A1 receptor expressed in DDT1 MF2 cells assessed as maximal inhibition of (-)-isoproterenol-stimulated cAMP accumulation.
For experiment [3], the species on record is Homo sapiens. As to the kind of experiment: Selectivity for adenosine A1 receptor over adenosine A2A receptor.

pKi: −log10 of the molar value.

Adenosine receptor A2a (Rattus norvegicus), sequence (P30543 whole entry, looked up): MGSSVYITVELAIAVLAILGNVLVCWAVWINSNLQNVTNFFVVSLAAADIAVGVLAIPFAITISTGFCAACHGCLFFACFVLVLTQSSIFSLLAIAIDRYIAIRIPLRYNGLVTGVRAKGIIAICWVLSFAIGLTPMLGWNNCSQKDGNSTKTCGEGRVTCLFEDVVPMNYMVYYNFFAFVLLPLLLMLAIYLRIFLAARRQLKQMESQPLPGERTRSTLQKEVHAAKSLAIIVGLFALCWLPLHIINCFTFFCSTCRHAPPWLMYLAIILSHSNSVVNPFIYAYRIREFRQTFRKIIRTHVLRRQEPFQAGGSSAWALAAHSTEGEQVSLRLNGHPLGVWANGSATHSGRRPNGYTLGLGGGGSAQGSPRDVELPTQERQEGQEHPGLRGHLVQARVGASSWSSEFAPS

By pKi is commonly meant the Ki on a negative log10 scale, so that one unit is a factor of ten. In the case of `O=C(OCc1ccccc1Cl)N1[C@H]2CC[C@H]1[C@H](Nc1ncnc3c1ncn3[C@@H]1O[C@H](CO)[C@@H](O)[C@H]1O)C2`, the pKi in experiment [1] was below 4.00. `O=C(OCc1ccccc1Br)N1[C@H]2CC[C@H]1[C@H](Nc1ncnc3c1ncn3[C@@H]1O[C@H](CO)[C@@H](O)[C@H]1O)C2` had a pKi in experiment [1] below 4.00. The Intrinsic activity in experiment [2] came to 0.97. In turn, `CC(=O)N1CC[C@@H](Nc2ncnc3c2ncn3[C@@H]2O[C@H](CO)[C@@H](O)[C@H]2O)C1` had a negative-log Ki (pKi) in experiment [1] below 4.00. Turning to `CC(C)(C)OC(=O)N1[C@H]2CC[C@H]1[C@H](Nc1ncnc3c1ncn3[C@@H]1O[C@H](CO)[C@@H](O)[C@H]1O)C2`, the pKi in experiment [1] was 4.46. The Intrinsic activity in experiment [2] was 1.01. `OC[C@H]1O[C@@H](n2cnc3c(NC4CC5CCC4N5)ncnc32)[C@H](O)[C@@H]1O` (stereo not given in full): the pKi in experiment [1] is 5.11. Same read-out and setting: the figure for `OC[C@H]1O[C@@H](n2cnc3c(N[C@@H]4CC[Se]C4)ncnc32)[C@H](O)[C@@H]1O` is 5.26; for `O=C(OCc1ccccc1)N1[C@H]2CC[C@H]1[C@H](Nc1ncnc3c1ncn3[C@@H]1O[C@H](CO)[C@@H](O)[C@H]1O)C2` it is below 4.00. The same measure, in the same setting: the figure for `OC[C@H]1O[C@@H](n2cnc3c(N[C@@H]4CCOC4)ncnc32)[C@H](O)[C@@H]1O` [TECADENOSON] is below 4.00; for `OC[C@H]1O[C@@H](n2cnc3c(N[C@@H]4CCSC4)ncnc32)[C@H](O)[C@@H]1O` it is 5.01. As to `CC(C)(C)OC(=O)N1CC[C@@H](Nc2ncnc3c2ncn3[C@@H]2O[C@H](CO)[C@@H](O)[C@H]2O)C1`, the Ratio Ki in experiment [3] was above 4700. Besides, the pKi in experiment [1] is below 4.00. For the same molecule, in experiment [2], the Intrinsic activity amounted to 0.99. Regarding `O=C(OCc1ccccc1)N1CC[C@@H](Nc2ncnc3c2ncn3[C@@H]2O[C@H](CO)[C@@H](O)[C@H]2O)C1`, in experiment [1], the pKi is below 4.00.
